In patent publication US20240317722A1, “HETEROARYL-3-PIPERIDINEDIONE COMPOUND AND USE THEREOF” (Medshine Discovery Inc., priority 2021, published 2024):
Read-outs that look alike come from different tables or passages of the source.

What was measured:
NCI-H1581 = test: Anti-proliferative effect in NCI-H1581 (CellTiter-Glo); assay type: cell-based; conditions: NCI-H1581, 3 days; for IC50: Homo sapiens, 72 h
Description: (§1) This assay studied the inhibitory effect of the compounds on cell proliferation by detecting the effect of the test compounds on the in vitro activity of tumor cells NCI-H1581, DMS114, NCI-H69 and NCI-H526.
(§2) The tumor cell lines were cultured in an incubator at 37° C., 5% CO2 or 0% CO2 according to the above culture conditions. The cells were periodically passaged, and cells in logarithmic growth phase were taken for plating. • 2. Cell plating • (1). Cells were stained with trypan blue and viable cells were counted.
(§3) • (3). 100 μL of cell suspension was added to each well of the culture plate, and culture medium without cells was added to the blank control well. • (4). The plate was incubated overnight in an incubator at 37° C., 5% CO2 or 0% CO2, and 100% relative humidity. • 3. Preparation of compound stock solution
(§4) Preparation of 1000× compound stock solution: Compound was dissolved in DMSO to 10 mM, then a portion was taken out and diluted to 1000 times the highest acting concentration. The diluted stock solution was dispensed for later use. • 4. Preparation of 5× compound working solution and treatment of cells with compounds. The working solutions were prepared freshly at each time for use. • (1). Preparation of 5× compound working solution: 119.4 μL of cell culture medium was added to a 96-well plate with a V-shaped bottom. 96 μL of DMSO-cell culture medium mix solution (with DMSO content of 0.5%) was added to subsequent gradient wells. 0.6 μL of the compound from the 1000× compound stock solution was added to the cell culture medium in the 96-well plate, and mixed to uniform with a pipette. A pipette was used to draw 24 μL of the compound-cell culture medium mixture into subsequent wells, and the mixture was mixed well by a pipette each time. • (2). Dosing: 25 μL of 5× compound working solution was added to the cell culture plate. 25 μL of DMSO-cell culture medium mix solution (with DMSO content of 0.5%) was added to the vehicle control and blank control. • (3). The 96-well cell plate was placed back into the incubator and cultured for 3 days. • 5. CellTiter-Glo luminescence cell viability detection
(§5) The following steps were performed according to the instruction of Promega CellTiter-Glo luminescence cell viability detection kit (Promega-G7573). • (1). The CellTiter-Glo buffer was thawed and allowed to stand to reach room temperature; • (2). CellTiter-Glo substrate was allowed to stand to reach room temperature; • (3). 10 mL of CellTiter-Glo buffer was added to CellTiter-Glo substrate in a bottle to dissolve the substrate to formulate CellTiter-Glo working solution; • (4). […] The culture plates were left at room temperature for 10 minutes to stabilize the luminescence signal; • (9). The luminous signal was detected on the 2104 En Vision plate reader. • 6. […]

NCI-H69 = test: Anti-proliferative effect in NCI-H69 (CellTiter-Glo); assay type: cell-based; conditions: NCI-H69, 3 days; for IC50: Homo sapiens, 72 h
Description: as §1, §2, §3, §4, §5

NCI-H526 = test: Anti-proliferative effect in NCI-H526 (CellTiter-Glo); assay type: cell-based; conditions: NCI-H526, 3 days; for IC50: Homo sapiens, 72 h
Description: as §1, §2, §3, §4, §5

[1] = Pharmacokinetics of compounds in mice; assay type: in vivo, C57BL/6N mice; conditions: for bioavailability / clearance / Vd / half-life: male, C57BL/6N, mouse, plasma; for bioavailability: read-out: Bioavailability F; for Vd: read-out: Apparent volume of distribution; for half-life: read-out: Elimination half-life (converted)
From the text: In this study, C57BL/6N male mice were selected as the test animals, and the LC/MS/MS method was used to quantitatively determine the drug concentration in the plasma of mice intravenously or orally administered the test compounds, so as to evaluate the pharmacokinetic profile of the test compounds in mice.
C57BL/6N mice (male, 20-30 g, 7-10 weeks old, Beijing Vital River).
A clear solution or suspension of the test compound was intravenously injected into C57BL/6N mice (fasted overnight) via tail or given to C57BL/6N mice (fasted overnight) by gavage. For intravenous injection administration, blood was collected from the cheek at 0 h (before administration) and 0.083, 0.25, 0.5, 1, 2, 4, 6, 8, and 24 h after administration. Each sample was collected about 0.05 mL. Heparin sodium was added to anti-coagulate. Plasma samples were collected and placed on wet ice, and centrifuged within 1 hour to separate the plasma (centrifugation conditions: 6000 g, 3 minutes, 2-8° C.). Blood samples were stored in a −80° C. refrigerator before analysis; For oral gavage administration, blood was collected from the cheek at 0 h (before administration) and 0.083, 0.25, 0.5, 1, 2, 4, 6, 8, 24 h after administration. Each sample was collected about 0.05 mL. Heparin sodium was added to anti-coagulate. Plasma samples were collected and placed on wet ice, and centrifuged within 1 hour to separate the plasma (centrifugation conditions: 6000 g, 3 minutes, 2-8° C.). Blood samples were stored in a −80° C. refrigerator before analysis. Through blood drug concentration data at different time points, Phoenix WinNonlin8.2.0 was used to calculate pharmacokinetic parameters, providing parameters such as AUC0-t, AUC0-∞, MRT0-∞, Cmax, Tmax, and T1/2, etc. and their mean and standard deviation.

[2] = administration by gavage, 10 mg/kg

IC50 (NCI-H1581) [nM] | IC50 (NCI-H69) [nM] | IC50 (NCI-H526) [nM] | Area under the plasma concentration-time curve (0-inf) [1, 2] [µM·h] | Peak concentration [1, 2] [µM] | Time to peak [1, 2] [h] | Area under the plasma concentration-time curve (0-inf) ([1]; intravenous injection, 1 mg/kg) [µM·h] | bioavailability ([1]; PO 10 mg/kg vs IV 1 mg/kg) [%] | clearance ([1]; intravenous injection, 1 mg/kg) [mL/min/kg] | Vd ([1]; intravenous injection, 1 mg/kg) [L/kg] | half-life ([1]; intravenous injection, 1 mg/kg) [h] | Area under the plasma concentration-time curve (0-inf) ([1]; intravenous injection, 2 mg/kg) [µM·h] | bioavailability ([1]; PO 10 mg/kg vs IV 2 mg/kg) [%] | clearance ([1]; intravenous injection, 2 mg/kg) [mL/min/kg] | Vd ([1]; intravenous injection, 2 mg/kg) [L/kg] | half-life ([1]; intravenous injection, 2 mg/kg) [h] | Compound | Max. IR (NCI-H1581) [%] | Max. IR (NCI-H69) [%] | Max. IR (NCI-H526) [%]
5.2 | 6.2 | 0.5 | 108.89 | 23.27 | 1.00 | 14.34 | 75.9 | 2.3 | 0.35 | 2.71 | – | – | – | – | – | COCCOc1cc(NC(=O)NCc2ccc3c(C4CCC(=O)NC4=O)coc3c2)cc(Cl)c1C (stereo not shown) [WX005] | 92.19 | 68.41 | 99.17
1.3 | 1.3 | 0.1 | 40.90 | 3.06 | 2.67 | – | – | – | – | – | 37.03 | 22.1 | 1.84 | 0.44 | 5.11 | COCCOc1cc(NC(=O)NCc2ccc3c(C4CCC(=O)NC4=O)noc3c2)cc(Cl)c1C (stereo not shown) [WX013] | 88.62 | 70.53 | 99.37
